Consider 2 compounds from patent publication US8604042B2, “Bi-aryl meta-pyrimidine inhibitors of kinases” (TargeGen, Inc., priority 2005, dated 2013).

Data set [1] deals with fibroblasts from sclerotic patients and healthy fibroblasts. The data set is described as follows: Extracellular matrix protein production in fibroblasts (real-time PCR). Type of data set: cell-based, human. The method, then: An in-vitro study was conducted using compound CLXII to examine the production of extracellular matrix proteins responsible for fibrosis in fibroblasts from sclerotic patients and healthy fibroblasts.
(Quantitative PCR measures a nucleic acid by following its amplification.)

In data set [2] the test system is bleomycin induced dermal fibrosis. The data set is described as follows: Mouse model of bleomycin induced dermal fibrosis. Format: in vivo. The following applies: low dose (30 mg/kg, bid) and high dose (100 mg/kg, bid). The method, then:
In vivo studies using compound CLXII were conducted in a mouse model of bleomycin induced dermal fibrosis. FIG. 41 indicates the results of administering a low dose (30 mg/kg, bid) and a high dose (100 mg/kg, bid) of CLXII.

In the next data set the test system is STAT5 phosphorylation. The data set is described as follows: STAT5 phosphorylation in Ba/F3-V617F cells. The following applies: data not shown. Format: cell-based. The protocol:
Protein concentration was determined using the BCA method (Pierce, Rockford, Ill.) and 100 μg of total cellular protein of each sample in 1× Laemmli buffer were subjected to Western blot analysis. The protein blot was probed with an anti-phospho-STAT5 (Tyr694/699) (Upstate Biotechnology, Charlottesville, Va.), subsequently stripped and re-probed with an anti-STAT5 antibody (Cell Signaling Technology, Danvers, Mass.). The phospho-STAT5 or STAT5 protein was visualized by the enhanced chemoluminescence method (Pierce). In vivo signaling studies were done in a similar fashion. […] Spleens were harvested 7 h after dosing and quickly homogenized in a FastPrep machine (Qbiogen, Irvine, Calif.). 100 μg of each spleen homogenate were subjected to Western blot analysis. The protein […] anti-phospho-STAT5 (Tyr694/699) (Upstate Biotechnology, Charlottesville, Va.), subsequently stripped and re-probed with an anti-STAT5 antibody (Cell Signaling Technology, Danvers, Mass.). The phospho-STAT5 or STAT5 protein was visualized by the enhanced chemoluminescence method (Pierce). In vivo signaling studies were done in a similar fashion. […] Spleens were harvested 7 h after dosing and quickly homogenized in a FastPrep machine (Qbiogen, Irvine, Calif.). 100 μg of each spleen homogenate were subjected to Western blot analysis. […]

A further data set has as its system BCR-ABL+K562 cells. The data set is described as follows: Growth of K562 cells. The following applies: Homo sapiens, control experiments. Type of data set: cell-based. From the text:
(§1) […]. data not shown), reflecting their dependence on signaling by wild type JAK2. […].

For data set [3], the system named is phospho-JAK2V617F, phospho-STAT5, phospho-STAT3. The data set is described as follows: Phosphorylation of JAK2V617F, STAT5 and STAT3 in HEL cells. Type of data set: cell-based. The following applies: Homo sapiens, read-out: IC50, levels of phospho-JAK2V617F, phospho-STAT5, phospho-STAT3.
In data set [4] the test system is BaF/3 cells expressing JAK2^V617F and GFP. The data set is described as follows: JAK2V617F-driven circulating tumor model in SCID mice. Format: in vivo, mouse. The following applies: oral 10, 30 or 100 mg/kg; day 11; FACS, GFP positive cells.
The test system of data set [5] is normal human dermal fibroblasts (NHDF). The data set is described as follows: XTT cell proliferation assay, normal human dermal fibroblast control. The note with it: Control data: Normal human dermal fibroblast control. Type of data set: cell-based. The method, then: (§2) HEL, CTLL-2 & normal human dermal fibroblasts (NHDF) were from the American Tissue Culture Collection Rockville, Md.). BaF/3 cells were obtained from DKFZ Cancer Research Center (Heidelberg, Germany).
(§3) BaF/3, HEL & NHDF cells were grown in RPMI 1640 medium (Gibco BRL, Gaithersburg, Md.) supplemented with penicillin, streptomycin, L-glutamine, and 10% fetal bovine serum (FBS). CTLL-2 cells were grown in the same media further supplemented with 20 U/mL recombinant IL-2 (Hoffmann-LaRoche, Nutley, N.J.). Plasmid containing the human JAK2 coding sequence was purchased from Invitrogen (Madison, Wis.). JAK2^V617F cDNA was generated by using site-directed mutagenesis to introduce the V617F mutation into the human JAK2 coding sequence followed by verification using two-directional sequencing. […]
(§4) Cell proliferation assay was performed using the XTT cell proliferation kit according to the manufacturer's instructions (Roche, Alameda, Calif.). […] The colored formazan product that is formed was measured spectrophotometrically using the Vmax spectrophotometer (Molecular Devices, Sunnyvale, Calif.) at 450 nm with correction at 650 nm. IC50 values were determined using the GraphPad Prism 4.0 software (San Diego, Calif.), wherefore OD values were plotted on y-axis (linear scale) and concentration (mM) on the x-axis (log scale).
On the technique in general: Tetrazolium assays rely on reduction of a dye to a coloured formazan, in cell work by metabolically active cells.

A further data set concerns CTLL-2 cells. The data set is described as follows: IL-2-induced JAK3-dependent proliferation of CTLL-2 cells. Format: cell-based. The following applies: Mus musculus. The protocol:
as §2, §3, §4

A further data set deals with parental Ba/F3 cells. The data set is described as follows: Growth of parental Ba/F3 cells. The note with it: Mus musculus, BaF3; data not shown. Format: cell-based.
Excerpt: as §1

Another data set concerns HEL cells. The data set is described as follows: XTT cell proliferation assay, HEL cells. Format: cell-based. The note with it: Homo sapiens.

Each structure is given as a SMILES string. “Also recorded” adds a separate entry of the source.

In the case of `Cc1ccc(Nc2nc(Nc3ccc(N4CCN(C)CC4)cc3)ncc2C)cc1C` [CLXII], the “basal synthesis of collagen 1a1” value in data set [1] (real-time PCR, 5% FCS, sclerotic vs normal fibroblasts) was “inhibition of basal synthesis of collagen 1a1 in sclerotic fibroblasts, but not normal, fibroblasts; also recorded: inhibition of basal synthesis of collagen 1a1 in sclerotic, but not normal, fibroblasts”. Also, the “basal synthesis of fibronectin 1” value in [1] (sclerotic or normal fibroblasts) is given as “dose not inhibit basal synthesis of fibronection-1 in either sclerotic or normal fibroblasts”. In addition, the “basal synthesis of collagen 1a2” value in [1] (sclerotic vs normal fibroblasts) is “some inhibition of basal synthesis of collagen 1a2 in sclerotic fibroblasts, but not normal, fibroblasts”. For the same compound, the “bleomycin induced dermal fibrosis” value in data set [2] is “prevention of bleomycin induced dermal fibrosis”.
Turning to `Cc1cnc(Nc2ccc(N3CCN(C)CC3)cc2)nc1Nc1cccc(S(=O)(=O)NC(C)(C)C)c1` [XLV], the half-inhibitory concentration (IC50) in the data set on STAT5 phosphorylation is 300 nM; in the data set with BCR-ABL+K562 cells it was 1000 nM; in [3], 300 to 600 nM; with CTLL-2 cells (IL-2 dependent cytotoxic T-cells, FIG. 32B, read-out: IC50, growth of CTLL-2 cells) it was 3400 nM; with parental Ba/F3 cells it was 470 nM; in the data set with HEL cells (homozygous for the JAK2V617F allele, FIG. 32C, read-out: IC50, HEL cells) it was 300 nM. Moreover, the “number of circulating JAK2^V617F tumor cells” value in data set [4] was “reduces the number of circulating JAK2^V617F tumor cells in a dose-dependent manner”. Besides, the EC50 in data set [5] was 6490 nM; in the data set with CTLL-2 cells (Control data: IL-2-induced JAK3-dependent proliferation) it was 3400 nM; with HEL cells (XTT, 72 hour incubation), 270 nM.

Broadly, the IC50 is the concentration needed to halve the response being measured. The EC50 is the midpoint of the concentration-response curve.
